Data from US20240254118A1, “PRMT5 INHIBITORS AND USES THEREOF” (Gilead Sciences, Inc., priority 2022, published 2024).
pEC50: −log10 of the molar value.

Key:
[1] = test system: SDMA signal (PRMT5 inhibition) in HCT116 MTAP-deleted cells; assay: Symmetric di-methyl arginine image-based high content screen assay (SDMA assay), HCT116 MTAP-deleted; type: cell-based; conditions: SDMA assay; for pEC50: Homo sapiens, HCT-116, 72 h, 3 days of treatment, cell line not given, taken as HCT116 MTAP-deleted, read-out: EC50 (SDMA assay); for EC50 selectivity (SDMA assay): taken as HCT116 WT versus MTAP-deleted
Outline: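 HCT116 MTAP-deleted cells treated with compound until Day 3, then formalin-fixed, permeabilized and immunostained for SDMA, with DAPI nuclear counterstain. Imaged by high-content microscopy; SDMA read-out is mean Alexa 488 intensity per DAPI-defined cell, reflecting PRMT5 inhibition.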

[2] = test system: HCT116 MTAP-deleted cells; assay: Cell viability assay (CellTiter-Glo, 7 days), HCT116 MTAP-deleted; conditions: Homo sapiens, HCT-116, 168 h

SMILES	pEC50 [1]	EC50 selectivity (SDMA assay) [1]	CC50 [2] [nM]
CCN(C(C)=O)N(Cc1ccc(C(F)(F)F)cn1)C(=O)c1cc2c(cc1F)nc(N)c1cnn(C)c12 [Example 205, N′-acetyl-4-amino-N′-ethyl-7-fluoro-1-methyl-N-[[5-(trifluoromethyl)-2-pyridyl]methyl]pyrazolo[4,3-c]quinoline-8-carbohydrazide]	> 9.00	44	< 100
CC(=O)N([C@@H]1CCOC1)N(Cc1ccc(C(F)(F)F)cn1)C(=O)c1ccc2nc(N)c3cnn(C)c3c2c1 [Example 206, N′-acetyl-4-amino-1-methyl-N′-[(3R)-tetrahydrofuran-3-yl]-N-[[5-(trifluoromethyl)-2-pyridyl]methyl]pyrazolo[4,3-c]quinoline-8-carbohydrazide]	< 8.30	220	100 to 1000
CC(=O)N([C@H]1CCOC1)N(Cc1ccc(C(F)(F)F)cn1)C(=O)c1ccc2nc(N)c3cnn(C)c3c2c1 [Example 207, N′-acetyl-4-amino-1-methyl-N′-[(3S)-tetrahydrofuran-3-yl]-N-[[5-(trifluoromethyl)-2-pyridyl]methyl]pyrazolo[4,3-c]quinoline-8-carbohydrazide]	8.30 to 9.00	364	100 to 1000
Cn1ncc2c(N)nc3cc(F)c(C(=O)N(Cc4nc5cc(Cl)ccc5n4C)N4CCCCC4=O)cc3c21 [Example 212, 4-Amino-N-[(5-chloro-1-methyl-benzimidazol-2-yl)methyl]-7-fluoro-1-methyl-N-(2-oxo-1-piperidyl)pyrazolo[4,3-c]quinoline-8-carboxamide]	8.30 to 9.00	80	< 100
CC(=O)N(C)N(Cc1cc2ccccc2s1)C(=O)c1ccc2nc(N)c3cnn(C)c3c2c1 [Example 213, N′-Acetyl-4-amino-N-(benzothiophen-2-ylmethyl)-N′,1-dimethyl-pyrazolo[4,3-c]quinoline-8-carbohydrazide]	> 9.00	209	< 100
CC(=O)NN(Cc1nc2cc(C(F)(F)F)ccc2s1)C(=O)c1ccc2nc(N)c3cnn(C)c3c2c1 [Example 215, N′-acetyl-4-amino-1-methyl-N-[[5-(trifluoromethyl)-1,3-benzothiazol-2-yl]methyl]pyrazolo[4,3-c]quinoline-8-carbohydrazide]	> 9.00	90	< 100
CN(C(=O)c1cocn1)N(Cc1ccc(C(F)(F)F)cc1)C(=O)c1ccc2nc(N)c3cnn(C)c3c2c1 [Example 218, N′-(4-amino-1-methyl-1H-pyrazolo[4,3-c]quinoline-8-carbonyl)-N-methyl-N′-(4-(trifluoromethyl)benzyl)oxazole-4-carbohydrazide]	> 9.00	6	< 100
CN(C(=O)c1ncco1)N(Cc1ccc(C(F)(F)F)cc1)C(=O)c1ccc2nc(N)c3cnn(C)c3c2c1 [Example 219, N′-(4-amino-1-methyl-1H-pyrazolo[4,3-c]quinoline-8-carbonyl)-N-methyl-N′-(4-(trifluoromethyl)benzyl)oxazole-2-carbohydrazide]	> 9.00	9	< 100
CC(=O)N(C)N(Cc1ccc(-c2cnc(C(F)(F)F)cc2C)cc1F)C(=O)c1ccc2nc(N)c3cnn(C)c3c2c1 [Example 220, N′-acetyl-4-amino-N-(2-fluoro-4-(4-methyl-6-(trifluoromethyl)pyridin-3-yl)benzyl)-N′,1-dimethyl-1H-pyrazolo[4,3-c]quinoline-8-carbohydrazide]	8.30 to 9.00	15	< 100
CC(=O)N(C)N(Cc1ccc(-c2cn(C(F)(F)F)cn2)cc1F)C(=O)c1ccc2nc(N)c3cnn(C)c3c2c1 [Example 223, N′-acetyl-4-amino-N-(2-fluoro-4-(1-(trifluoromethyl)-1H-imidazol-4-yl)benzyl)-N′,1-dimethyl-1H-pyrazolo[4,3-c]quinoline-8-carbohydrazide]	8.30 to 9.00	139	< 100

Second part, led by results:

pEC50 [1]	EC50 selectivity (SDMA assay) [1]	SMILES	CC50 [2] [nM]
> 9.00	91	Cn1ncc2c(N)nc3ccc(C(=O)N(Cc4nc5cc(Cl)ccc5n4C)N4CCCC4=O)cc3c21 [Example 208, 4-Amino-N-[(5-chloro-1-methyl-benzimidazol-2-yl)methyl]-1-methyl-N-(2-oxopyrrolidin-1-yl)pyrazolo[4,3-c]quinoline-8-carboxamide]	< 100
> 9.00	228	CC(=O)N(C)N(Cc1nc2cc(Cl)ccc2n1C)C(=O)c1ccc2nc(N)c3cnn(C)c3c2c1 [Example 209, N′-Acetyl-4-amino-N-[(5-chloro-1-methyl-benzimidazol-2-yl)methyl]-N′,1-dimethyl-pyrazolo[4,3-c]quinoline-8-carbohydrazide]	< 100
8.30 to 9.00	59	CC(=O)N(C)N(Cc1nc2cc(Cl)ccc2n1C)C(=O)c1cc2c(cc1F)nc(N)c1cnn(C)c12 [Example 210, N′-acetyl-4-amino-N-[(5-chloro-1-methyl-benzimidazol-2-yl)methyl]-7-fluoro-N′,1-dimethyl-pyrazolo[4,3-c]quinoline-8-carbohydrazide]	< 100
> 9.00	142	Cn1ncc2c(N)nc3ccc(C(=O)N(Cc4nc5cc(Cl)ccc5n4C)N4CCCCC4=O)cc3c21 [Example 211, 4-amino-N-((5-chloro-1-methyl-1H-benzo[d]imidazol-2-yl)methyl)-1-methyl-N-(2-oxopiperidin-1-yl)-1H-pyrazolo[4,3-c]quinoline-8-carboxamide]	< 100
> 9.00	74	CC(=O)N(C)N(Cc1nc2ccc(F)cc2s1)C(=O)c1cc2c(cc1F)nc(N)c1cnn(C)c12 [Example 214, N′-acetyl-4-amino-7-fluoro-N-[(6-fluoro-1,3-benzothiazol-2-yl)methyl]-N′,1-dimethyl-pyrazolo[4,3-c]quinoline-8-carbohydrazide]	< 100
> 9.00	54	CC(=O)NN(Cc1nc2cc(C(F)(F)F)ccc2s1)C(=O)c1cc2c(cc1F)nc(N)c1cnn(C)c12 [Example 216, N′-acetyl-4-amino-7-fluoro-1-methyl-N-[[5-(trifluoromethyl)-1,3-benzothiazol-2-yl]methyl]pyrazolo[4,3-c]quinoline-8-carbohydrazide]	< 100
8.30 to 9.00	218	CN(C(=O)C1CC1)N(Cc1ccc(Cl)cn1)C(=O)c1ccc2nc(N)c3cnn(C)c3c2c1 [Example 221, 4-amino-N-((5-chloropyridin-2-yl)methyl)-N′-(cyclopropanecarbonyl)-N′,1-dimethyl-1H-pyrazolo[4,3-c]quinoline-8-carbohydrazide]	< 100
> 9.00	123	CC(=O)N(C)N(Cc1ccc(-c2cnn(C(F)(F)F)c2)cc1F)C(=O)c1ccc2nc(N)c3cnn(C)c3c2c1 [Example 222, N′-acetyl-4-amino-N-(2-fluoro-4-(1-(trifluoromethyl)-1H-pyrazol-4-yl)benzyl)-N′,1-dimethyl-1H-pyrazolo[4,3-c]quinoline-8-carbohydrazide]	< 100
